Measured values reported in patent US9156845B2, “4-(substituted amino)-7H-pyrrolo[2,3-d] pyrimidines as LRRK2 inhibitors” (Pfizer Inc., priority 2012, dated 2015).

Columns and labels:
[1] = biological target: GST-tagged truncated LRRK2 (Homo sapiens (Human), UniProt Q5S007); assay: LRRK2 Lantha Screen kinase assay; assay type: biochemical; details: geometric mean of 2-5 determinations unless otherwise indicated (a: >=6 determinations; b: single determination); read-out: LRRK2 WT IC50
[2] = biological target: mutant G2019S LRRK2 (Homo sapiens (Human), UniProt Q5S007, G2019S); assay: LRRK2 Lantha Screen kinase assay, mutant enzyme; assay type: biochemical; details: geometric mean of 2-5 determinations unless otherwise indicated (a: >=6 determinations; b: single determination)
Sequence of mutant G2019S LRRK2 (Q5S007 970-2527 G2019S): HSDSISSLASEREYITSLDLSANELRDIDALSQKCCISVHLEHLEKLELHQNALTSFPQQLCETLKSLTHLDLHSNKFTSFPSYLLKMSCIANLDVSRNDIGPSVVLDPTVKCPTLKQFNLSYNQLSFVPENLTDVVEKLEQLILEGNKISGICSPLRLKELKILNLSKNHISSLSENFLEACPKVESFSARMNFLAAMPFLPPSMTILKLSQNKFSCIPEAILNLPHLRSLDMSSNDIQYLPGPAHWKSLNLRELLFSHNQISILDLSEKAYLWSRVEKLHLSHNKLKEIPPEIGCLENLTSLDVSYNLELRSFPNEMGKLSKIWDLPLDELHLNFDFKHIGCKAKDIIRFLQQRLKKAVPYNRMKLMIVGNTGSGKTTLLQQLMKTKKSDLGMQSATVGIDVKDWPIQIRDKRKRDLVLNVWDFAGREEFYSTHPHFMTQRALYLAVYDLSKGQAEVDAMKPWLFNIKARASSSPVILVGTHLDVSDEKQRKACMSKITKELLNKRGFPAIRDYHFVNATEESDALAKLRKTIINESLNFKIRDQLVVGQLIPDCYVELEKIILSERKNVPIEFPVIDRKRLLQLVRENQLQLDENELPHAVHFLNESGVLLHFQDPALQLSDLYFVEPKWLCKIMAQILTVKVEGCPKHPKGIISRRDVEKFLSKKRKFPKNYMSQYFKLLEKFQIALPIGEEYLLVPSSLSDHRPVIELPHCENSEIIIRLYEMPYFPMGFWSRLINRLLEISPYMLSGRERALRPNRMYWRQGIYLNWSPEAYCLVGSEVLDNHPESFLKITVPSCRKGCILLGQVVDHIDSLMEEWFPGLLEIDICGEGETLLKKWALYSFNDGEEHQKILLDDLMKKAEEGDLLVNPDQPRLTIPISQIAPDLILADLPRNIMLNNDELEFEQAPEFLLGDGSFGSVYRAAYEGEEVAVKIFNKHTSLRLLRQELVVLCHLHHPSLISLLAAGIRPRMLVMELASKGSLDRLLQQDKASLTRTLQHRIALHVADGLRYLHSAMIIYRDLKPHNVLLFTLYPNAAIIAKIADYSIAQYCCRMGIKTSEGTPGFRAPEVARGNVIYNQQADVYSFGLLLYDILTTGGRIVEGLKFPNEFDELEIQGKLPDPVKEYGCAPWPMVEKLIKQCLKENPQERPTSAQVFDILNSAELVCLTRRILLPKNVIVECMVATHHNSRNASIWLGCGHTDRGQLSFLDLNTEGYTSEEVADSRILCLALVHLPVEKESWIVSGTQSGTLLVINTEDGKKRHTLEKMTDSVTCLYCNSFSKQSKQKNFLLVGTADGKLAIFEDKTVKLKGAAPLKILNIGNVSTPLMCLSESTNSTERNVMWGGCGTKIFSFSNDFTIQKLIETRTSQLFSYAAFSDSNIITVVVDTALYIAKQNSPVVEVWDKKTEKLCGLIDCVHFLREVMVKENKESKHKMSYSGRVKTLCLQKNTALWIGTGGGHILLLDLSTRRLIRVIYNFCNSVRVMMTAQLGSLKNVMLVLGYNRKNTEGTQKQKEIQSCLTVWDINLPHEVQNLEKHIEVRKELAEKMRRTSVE
Procedure: LRRK2 kinase activity was measured using Lantha Screen technology from Invitrogen. GST-tagged truncated LRRK2 from Invitrogen (Cat # PV4874) was incubated with a fluorescein-labeled peptide substrate based upon ezrin/radixin/moesin (ERM), also known as LRRKtide (Invitrogen cat #PR8976A), in the presence of a dose response of compound. Upon completion, the assay was stopped and detected with a terbium labeled anti-phospho-ERM antibody (Invitrogen, cat #PR8975A). […] Aliquots (3.5 μL) of the 100% DMSO dose response were mixed with 46.5 μL water then 1 μL of this mixture was added to the 3 μL substrate mix in the 384-well plate. The kinase reaction was started with 3 μL of a working solution of LRRK2 enzyme at a concentration of 4 μg/mL. […] The reaction was allowed to progress at room temperature for two hours and then stopped with the addition of 7 μL of detection buffer (20 mM Tris pH 7.6, 0.01% NP-40, 0.02% NaN3, 6 mM EDTA with 2 nM terbium labeled anti-phospho-ERM).
All final concentrations of substrate ATP and enzyme were the same.

Sequence of GST-tagged truncated LRRK2 (Q5S007 970-2527): as the sequence (Q5S007 970-2527 G2019S) above, with S1050G counted along it

| SMILES | IC50 [1] [nM] | IC50 [2] [nM] |
| --- | --- | --- |
| N#Cc1cccc(-c2c[nH]c3ncnc(N4CCC(c5cc[nH]n5)CC4)c23)c1 [Example 34, 3-{4-[4-(1H-pyrazol-3-yl)piperidin-1-yl]-7H-pyrrolo[2,3-d]pyrimidin-5-yl}benzonitrile] | 69 | 136 |
| N#Cc1cccc(-c2c[nH]c3ncnc(N4CC[C@H](F)C4)c23)c1 [Example 35, 3-{4-[(3S)-3-fluoropyrrolidin-1-yl]-7H-pyrrolo[2,3-d]pyrimidin-5-yl}benzonitrile] | 30 | 155 |
| N#Cc1cccc(-c2c[nH]c3ncnc(N4CCOC(c5cc[nH]n5)C4)c23)c1 (stereo not shown) [Example 36, 3-{4-[2-(1H-pyrazol-3-yl)morpholin-4-yl]-7H-pyrrolo[2,3-d]pyrimidin-5-yl}benzonitrile] | 43 | 238 |
| N#Cc1cccc(-c2c[nH]c3ncnc(N4CCCC(c5cc[nH]n5)C4)c23)c1 (stereo not shown) [Example 37, 3-{4-[3-(1H-pyrazol-3-yl)piperidin-1-yl]-7H-pyrrolo[2,3-d]pyrimidin-5-yl}benzonitrile] | 84 | 200 |
| N#Cc1cccc(-c2c[nH]c3ncnc(N4CCCC(c5ncc[nH]5)C4)c23)c1 (stereo not shown) [Example 38, 3-{4-[3-(1H-imidazol-2-yl)piperidin-1-yl]-7H-pyrrolo[2,3-d]pyrimidin-5-yl}benzonitrile] | 53 | 331 |
| CN1CCCC(Nc2ncnc3[nH]cc(-c4cccc(C#N)c4)c23)C1 (stereo not shown) [Example 39, 3-{4-[(1-methylpiperidin-3-yl)amino]-7H-pyrrolo[2,3-d]pyrimidin-5-yl}benzonitrile] | 78 | 243 |
| N#Cc1cccc(-c2c[nH]c3ncnc(N4CCCC5(CNC(=O)C5)C4)c23)c1 (stereo not shown) [Example 40, 3-[4-(3-oxo-2,7-diazaspiro[4.5]dec-7-yl)-7H-pyrrolo[2,3-d]pyrimidin-5-yl]benzonitrile] | 35 | 119 |
| N#Cc1cccc(-c2c[nH]c3ncnc(NCCN4CCOCC4)c23)c1 [Example 42, 3-(4-{[2-(morpholin-4-yl)ethyl]amino}-7H-pyrrolo[2,3-d]pyrimidin-5-yl)benzonitrile] | 89 | 487 |
| N#Cc1cccc(-c2c[nH]c3ncnc(N4CCCC5(CCOC5)C4)c23)c1 (stereo not shown) [Example 43, 3-[4-(2-oxa-7-azaspiro[4.5]dec-7-yl)-7H-pyrrolo[2,3-d]pyrimidin-5-yl]benzonitrile] | 34 | 244 |
| CC(=O)NC1CCN(c2ncnc3[nH]cc(-c4cccc(C#N)c4)c23)CC1 [Example 44, N-{1-[5-(3-cyanophenyl)-7H-pyrrolo[2,3-d]pyrimidin-4-yl]piperidin-4-yl}acetamide] | 50 | 190 |
| C[C@H]1CCCN(c2ncnc3[nH]cc(-c4ccc5[nH]ncc5c4)c23)C1 [Example 45, 5-(1H-indazol-5-yl)-4-[(3S)-3-methylpiperidin-1-yl]-7H-pyrrolo[2,3-d]pyrimidine] | 67 | 66 |
| C[C@H]1CCCN(c2ncnc3[nH]cc(-c4cccc(S(N)(=O)=O)c4)c23)C1 [Example 46, 3-{4-[(3S)-3-methylpiperidin-1-yl]-7H-pyrrolo[2,3-d]pyrimidin-5-yl}benzenesulfonamide] | 24 | 33 |
| C[C@H]1CCCN(c2ncnc3[nH]cc(-c4ccccc4F)c23)C1 [Example 47, 5-(2-fluorophenyl)-4-[(3S)-3-methylpiperidin-1-yl]-7H-pyrrolo[2,3-d]pyrimidine] | 97 | 122 |
| C[C@H]1CCCN(c2ncnc3[nH]cc(-c4cccc5[nH]ncc45)c23)C1 [Example 48, 5-(1H-indazol-4-yl)-4-[(3S)-3-methylpiperidin-1-yl]-7H-pyrrolo[2,3-d]pyrimidine] | 10 | 14 |
| Cc1cc(-c2c[nH]c3ncnc(N4CCC[C@H](C)C4)c23)cnc1F [Example 49, 5-(6-fluoro-5-methylpyridin-3-yl)-4-[(3S)-3-methylpiperidin-1-yl]-7H-pyrrolo[2,3-d]pyrimidine] | 64 | 65 |
| C[C@H]1CCCN(c2ncnc3[nH]cc(-c4ccc5c(c4)CNC5=O)c23)C1 [Example 50, 5-{4-[(3S)-3-methylpiperidin-1-yl]-7H-pyrrolo[2,3-d]pyrimidin-5-yl}-2,3-dihydro-1H-isoindol-1-one] | 33 | 33 |
| C[C@H]1CCCN(c2ncnc3[nH]cc(-c4cccnc4)c23)C1 [Example 51, 4-[(3S)-3-methylpiperidin-1-yl]-5-(pyridin-3-yl)-7H-pyrrolo[2,3-d]pyrimidine] | 56 | 95 |
| Cc1cncc(-c2c[nH]c3ncnc(N4CCC[C@H](C)C4)c23)c1 [Example 52, 4-[(3S)-3-methylpiperidin-1-yl]-5-(5-methylpyridin-3-yl)-7H-pyrrolo[2,3-d]pyrimidine] | 15 | 19 |
| C[C@H]1CCCN(c2ncnc3[nH]cc(-c4cnc5[nH]ccc5c4)c23)C1 [Example 53, 4-[(3S)-3-methylpiperidin-1-yl]-5-(7H-pyrrolo[2,3-b]pyridin-5-yl)-7H-pyrrolo[2,3-d]pyrimidine] | 74 | 69 |

| SMILES | IC50 [1] [nM] | IC50 [2] [nM] |
| --- | --- | --- |
| C[C@H]1CCCN(c2ncnc3[nH]cc(-c4ccc5c(c4)C(=O)NC5)c23)C1 [Example 54, 6-{4-[(3S)-3-methylpiperidin-1-yl]-7H-pyrrolo[2,3-d]pyrimidin-5-yl}-2,3-dihydro-1H-isoindol-1-one] | 68 | 59 |
| C[C@H]1CCCN(c2ncnc3[nH]cc(-c4cnc5cc[nH]c5c4)c23)C1 [Example 55, 4-[(3S)-3-methylpiperidin-1-yl]-5-(1H-pyrrolo[3,2-b]pyridin-6-yl)-7H-pyrrolo[2,3-d]pyrimidine] | 53 | 50 |
| C[C@H]1CCCN(c2ncnc3[nH]cc(-c4ccc(O)cc4)c23)C1 [Example 56, 4-{4-[(3S)-3-methylpiperidin-1-yl]-7H-pyrrolo[2,3-d]pyrimidin-5-yl}phenol] | 26 | 28 |
| C[C@H]1CCCN(c2ncnc3[nH]cc(-c4ccc(C(N)=O)cc4)c23)C1 [Example 57, 4-{4-[(3S)-3-methylpiperidin-1-yl]-7H-pyrrolo[2,3-d]pyrimidin-5-yl}benzamide] | 13 | 9 |
| C[C@H]1CCCN(c2ncnc3[nH]cc(-c4cccc(O)c4)c23)C1 [Example 58, 3-{4-[(3S)-3-methylpiperidin-1-yl]-7H-pyrrolo[2,3-d]pyrimidin-5-yl}phenol] | 9 | 12 |
| Cc1cnc(Cl)c(-c2c[nH]c3ncnc(N4CCC[C@H](C)C4)c23)c1 [Example 59, 5-(2-chloro-5-methylpyridin-3-yl)-4-[(3S)-3-methylpiperidin-1-yl]-7H-pyrrolo[2,3-d]pyrimidine] | 30 | 30 |
| C[C@H]1CCCN(c2ncnc3[nH]cc(-c4cccc(C(N)=O)c4)c23)C1 [Example 60, 3-{4-[(3S)-3-methylpiperidin-1-yl]-7H-pyrrolo[2,3-d]pyrimidin-5-yl}benzamide] | 86 | 58 |
| N#Cc1cccc(-c2c[nH]c3ncnc(N4CCCC(F)C4)c23)c1 (stereo not shown) [Example 61, 3-[4-(3-fluoropiperidin-1-yl)-7H-pyrrolo[2,3-d]pyrimidin-5-yl]benzonitrile] | 12 | 80 |
| CC1CCN(c2ncnc3[nH]cc(-c4cccc(C#N)c4)c23)CC1 [Example 62, 3-[4-(4-methylpiperidin-1-yl)-7H-pyrrolo[2,3-d]pyrimidin-5-yl]benzonitrile] | 91 | 273 |
| C[C@H]1CCCN(c2ncnc3[nH]cc(-c4cccc(C(=O)O)c4)c23)C1 [Example 63, 3-{4-[(3S)-3-methylpiperidin-1-yl]-7H-pyrrolo[2,3-d]pyrimidin-5-yl}benzoic acid] | 55 | 39 |
| CNc1ncnc2[nH]cc(-c3cccc(C#N)c3)c12 [Example 64, 3-[4-(methylamino)-7H-pyrrolo[2,3-d]pyrimidin-5-yl]benzonitrile] | 45 | 97 |
| COc1ccc(C#N)cc1-c1c[nH]c2ncnc(N3C[C@H](C)C[C@H](C)C3)c12 [Example 65, 3-[4-(3,5-cis-dimethylpiperidin-1-yl)-7H-pyrrolo[2,3-d]pyrimidin-5-yl]-4-methoxybenzonitrile] | 85 | 176 |
| COc1ccc(C#N)cc1-c1c[nH]c2ncnc(N3CCC[C@H](C)C3)c12 [Example 66, 4-methoxy-3-{4-[(3S)-3-methylpiperidin-1-yl]-7H-pyrrolo[2,3-d]pyrimidin-5-yl}benzonitrile] | 21 | 51 |
| C[C@H]1CCCN(c2ncnc3[nH]cc(-c4cccc(C#N)c4F)c23)C1 [Example 67, 2-fluoro-3-{4-[(3S)-3-methylpiperidin-1-yl]-7H-pyrrolo[2,3-d]pyrimidin-5-yl}benzonitrile] | 11 | 35 |
| CN(C)c1ncnc2[nH]cc(-c3ccccc3)c12 [Example 68, N,N-dimethyl-5-phenyl-7H-pyrrolo[2,3-d]pyrimidin-4-amine] | 63 | 39 |
| CN(C)c1ncnc2[nH]cc(-c3cccc(C#N)c3F)c12 [Example 69, 3-[4-(dimethylamino)-7H-pyrrolo[2,3-d]pyrimidin-5-yl]-2-fluorobenzonitrile] | 6 | 17 |
| N#Cc1cccc(-c2c[nH]c3ncnc(N4CCCC4)c23)c1 [Example 70, 3-[4-(pyrrolidin-1-yl)-7H-pyrrolo[2,3-d]pyrimidin-5-yl]benzonitrile] | 8 | 64 |
| CN(C)c1ncnc2[nH]cc(-c3cc(C#N)ccc3F)c12 [Example 72, 3-[4-(dimethylamino)-7H-pyrrolo[2,3-d]pyrimidin-5-yl]-4-fluorobenzonitrile] | 37 | 190 |
| CCN(CC)c1ncnc2[nH]cc(-c3cccc(C#N)c3)c12 [Example 73, 3-[4-(diethylamino)-7H-pyrrolo[2,3-d]pyrimidin-5-yl]benzonitrile] | 13 | 119 |
